Experimental data taken from patent US20110071108A1, “Beta-Cyclodextrin Derivatives as Antibacterial Agents” (Pinnacle Pharmaceuticals, Inc., priority 2005, published 2011).

What was measured:
Assay in all cases: Bacterial panel testing, MIC by broth microdilution
Format in all cases: cell-based
Details in all cases: 20-24 hours growth
Enterococcus faecium = tested on: Enterococcus faecium
Procedure, shortened: (§1)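 Bacteria are cultured briefly at 37° C, standardized to McFarland density and diluted into Mueller-Hinton or Brain Heart infusion media. Compound from a 10 μg/ml DMSO solution is serially diluted twofold in this inoculated medium, and growth inhibition is scored as clear wells after 20-24 h.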

Salmonella choleraesuis = tested on: Salmonella choleraesuis
Procedure, shortened: as §1

Bacillus atrophaeus = tested on: Bacillus atrophaeus
Procedure, shortened: as §1

Eschericia coli = tested on: Eschericia coli
Procedure, shortened: as §1

Pseudomonas aeruginosa = tested on: Pseudomonas aeruginosa
Procedure, shortened: as §1

Staphylococcus aureus = tested on: Staphylococcus aureus
Procedure, shortened: as §1

SMILES | MIC EF (Enterococcus faecium) | MIC SC (Salmonella choleraesuis) | MIC BA (Bacillus atrophaeus) | MIC EC (Eschericia coli) | MIC PA (Pseudomonas aeruginosa) | MIC SA (Staphylococcus aureus)
CN(C)C[C@H]1O[C@@H]2O[C@H]3[C@H](O)[C@@H](O)[C@@H](O[C@H]4[C@H](O)[C@@H](O)[C@@H](O[C@H]5[C@H](O)[C@@H](O)[C@@H](O[C@H]6[C@H](O)[C@@H](O)[C@@H](O[C@H]7[C@H](O)[C@@H](O)[C@@H](O[C@H]8[C@H](O)[C@@H](O)[C@@H](O[C@H]1[C@H](O)[C@H]2O)O[C@@H]8CN(C)C)O[C@@H]7CN(C)C)O[C@@H]6CN(C)C)O[C@@H]5CN(C)C)O[C@@H]4CN(C)C)O[C@@H]3CN(C)C | >200 µg/mL | >200 µg/mL | <0.2 µg/mL | >200 µg/mL | >200 µg/mL | >200 µg/mL
CC(C)[C@H](N)C(=O)NC[C@H]1O[C@@H]2O[C@H]3[C@H](O)[C@@H](O)[C@@H](O[C@H]4[C@H](O)[C@@H](O)[C@@H](O[C@H]5[C@H](O)[C@@H](O)[C@@H](O[C@H]6[C@H](O)[C@@H](O)[C@@H](O[C@H]7[C@H](O)[C@@H](O)[C@@H](O[C@H]8[C@H](O)[C@@H](O)[C@@H](O[C@H]1[C@H](O)[C@H]2O)O[C@@H]8CNC(=O)[C@@H](N)C(C)C)O[C@@H]7CNC(=O)[C@@H](N)C(C)C)O[C@@H]6CNC(=O)[C@@H](N)C(C)C)O[C@@H]5CNC(=O)[C@@H](N)C(C)C)O[C@@H]4CNC(=O)[C@@H](N)C(C)C)O[C@@H]3CNC(=O)[C@@H](N)C(C)C.Cl.Cl.Cl.Cl.Cl.Cl.Cl | >200 µg/mL | >200 µg/mL | >200 µg/mL | >200 µg/mL | >200 µg/mL | >200 µg/mL
Cl.Cl.Cl.Cl.Cl.Cl.Cl.N[C@@H](CC(=O)O)C(=O)NC[C@H]1O[C@@H]2O[C@H]3[C@H](O)[C@@H](O)[C@@H](O[C@H]4[C@H](O)[C@@H](O)[C@@H](O[C@H]5[C@H](O)[C@@H](O)[C@@H](O[C@H]6[C@H](O)[C@@H](O)[C@@H](O[C@H]7[C@H](O)[C@@H](O)[C@@H](O[C@H]8[C@H](O)[C@@H](O)[C@@H](O[C@H]1[C@H](O)[C@H]2O)O[C@@H]8CNC(=O)[C@@H](N)CC(=O)O)O[C@@H]7CNC(=O)[C@@H](N)CC(=O)O)O[C@@H]6CNC(=O)[C@@H](N)CC(=O)O)O[C@@H]5CNC(=O)[C@@H](N)CC(=O)O)O[C@@H]4CNC(=O)[C@@H](N)CC(=O)O)O[C@@H]3CNC(=O)[C@@H](N)CC(=O)O | >200 µg/mL | >200 µg/mL | >200 µg/mL | >200 µg/mL | >200 µg/mL | >200 µg/mL
Cl.Cl.Cl.Cl.Cl.Cl.Cl.NCCCC(=O)NC[C@H]1O[C@@H]2O[C@H]3[C@H](O)[C@@H](O)[C@@H](O[C@H]4[C@H](O)[C@@H](O)[C@@H](O[C@H]5[C@H](O)[C@@H](O)[C@@H](O[C@H]6[C@H](O)[C@@H](O)[C@@H](O[C@H]7[C@H](O)[C@@H](O)[C@@H](O[C@H]8[C@H](O)[C@@H](O)[C@@H](O[C@H]1[C@H](O)[C@H]2O)O[C@@H]8CNC(=O)CCCN)O[C@@H]7CNC(=O)CCCN)O[C@@H]6CNC(=O)CCCN)O[C@@H]5CNC(=O)CCCN)O[C@@H]4CNC(=O)CCCN)O[C@@H]3CNC(=O)CCCN | >200 µg/mL | >200 µg/mL | >200 µg/mL | >200 µg/mL | >200 µg/mL | >200 µg/mL
Cl.Cl.Cl.Cl.Cl.Cl.Cl.N[C@@H](Cc1ccc(OCc2ccccc2)cc1)C(=O)NC[C@H]1O[C@@H]2O[C@H]3[C@H](O)[C@@H](O)[C@@H](O[C@H]4[C@H](O)[C@@H](O)[C@@H](O[C@H]5[C@H](O)[C@@H](O)[C@@H](O[C@H]6[C@H](O)[C@@H](O)[C@@H](O[C@H]7[C@H](O)[C@@H](O)[C@@H](O[C@H]8[C@H](O)[C@@H](O)[C@@H](O[C@H]1[C@H](O)[C@H]2O)O[C@@H]8CNC(=O)[C@@H](N)Cc1ccc(OCc2ccccc2)cc1)O[C@@H]7CNC(=O)[C@@H](N)Cc1ccc(OCc2ccccc2)cc1)O[C@@H]6CNC(=O)[C@@H](N)Cc1ccc(OCc2ccccc2)cc1)O[C@@H]5CNC(=O)[C@@H](N)Cc1ccc(OCc2ccccc2)cc1)O[C@@H]4CNC(=O)[C@@H](N)Cc1ccc(OCc2ccccc2)cc1)O[C@@H]3CNC(=O)[C@@H](N)Cc1ccc(OCc2ccccc2)cc1 | >200 µg/mL | >200 µg/mL | >200 µg/mL | >200 µg/mL | >200 µg/mL | >200 µg/mL
O=C(O)COC[C@H]1O[C@@H]2O[C@H]3[C@H](O)[C@@H](O)[C@@H](O[C@H]4[C@H](O)[C@@H](O)[C@@H](O[C@H]5[C@H](O)[C@@H](O)[C@@H](O[C@H]6[C@H](O)[C@@H](O)[C@@H](O[C@H]7[C@H](O)[C@@H](O)[C@@H](O[C@H]8[C@H](O)[C@@H](O)[C@@H](O[C@H]1[C@H](O)[C@H]2O)O[C@@H]8COCC(=O)O)O[C@@H]7COCC(=O)O)O[C@@H]6COCC(=O)O)O[C@@H]5COCC(=O)O)O[C@@H]4COCC(=O)O)O[C@@H]3COCC(=O)O | >200 µg/mL | >200 µg/mL | >200 µg/mL | >200 µg/mL | >200 µg/mL | >200 µg/mL
O[C@@H]1[C@@H](O)[C@H]2O[C@H]3[C@H](O)[C@@H](O)[C@@H](O[C@H]4[C@H](O)[C@@H](O)[C@@H](O[C@H]5[C@H](O)[C@@H](O)[C@@H](O[C@H]6[C@H](O)[C@@H](O)[C@@H](O[C@H]7[C@H](O)[C@@H](O)[C@@H](O[C@H]8[C@H](O)[C@@H](O)[C@@H](O[C@@H]1[C@@H](CSCc1ccccc1)O2)O[C@@H]8CSCc1ccccc1)O[C@@H]7CSCc1ccccc1)O[C@@H]6CSCc1ccccc1)O[C@@H]5CSCc1ccccc1)O[C@@H]4CSCc1ccccc1)O[C@@H]3CSCc1ccccc1 | >200 µg/mL | >200 µg/mL | >200 µg/mL | >200 µg/mL | >200 µg/mL | >200 µg/mL
CC(=O)OC1C2OC(Cn3cc(Cc4ccccc4)nn3)C(OC3OC(Cn4cc(Cc5ccccc5)nn4)C(OC4OC(Cn5cc(Cc6ccccc6)nn5)C(OC5OC(Cn6cc(Cc7ccccc7)nn6)C(OC6OC(Cn7cc(Cc8ccccc8)nn7)C(OC7OC(Cn8cc(Cc9ccccc9)nn8)C(OC8OC(Cn9cc(Cc%10ccccc%10)nn9)C(O2)C(OC(C)=O)C8OC(C)=O)C(OC(C)=O)C7OC(C)=O)C(OC(C)=O)C6OC(C)=O)C(OC(C)=O)C5OC(C)=O)C(OC(C)=O)C4OC(C)=O)C(OC(C)=O)C3OC(C)=O)C1OC(C)=O (stereo not drawn) | >200 µg/mL | >200 µg/mL | >200 µg/mL | >200 µg/mL | >200 µg/mL | >200 µg/mL
